pIC50: −log10 of the molar value.
Target: Mitogen-activated protein kinase 8 (Homo sapiens, UniProt P45983)
Assay: In Vitro Enzyme Assay: In vitro JNK1 assay.

Mitogen-activated protein kinase 8, sequence (P45983 whole entry): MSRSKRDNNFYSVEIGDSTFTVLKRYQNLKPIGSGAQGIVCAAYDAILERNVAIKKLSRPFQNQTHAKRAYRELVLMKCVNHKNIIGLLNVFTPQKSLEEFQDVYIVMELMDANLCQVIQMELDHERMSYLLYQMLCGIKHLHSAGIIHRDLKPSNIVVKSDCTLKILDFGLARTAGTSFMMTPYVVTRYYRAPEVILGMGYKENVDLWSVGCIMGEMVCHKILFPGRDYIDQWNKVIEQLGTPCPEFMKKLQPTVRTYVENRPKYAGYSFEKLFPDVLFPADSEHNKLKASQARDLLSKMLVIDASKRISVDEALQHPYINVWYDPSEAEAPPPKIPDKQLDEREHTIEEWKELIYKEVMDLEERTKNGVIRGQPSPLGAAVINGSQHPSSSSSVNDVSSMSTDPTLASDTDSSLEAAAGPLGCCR

SMILES | pIC50
O=C(NCc1cn(-c2ccccc2F)c2cc(F)ccc2c1=O)c1cnn(-c2ccccc2)c1 | 7.40
CC(C)(O)CNC(=O)c1ccc(C(=O)NCc2cn(-c3ccccc3)c3cc(Cl)ccc3c2=O)cc1 | 6.66
COC(=O)c1c(CNC(=O)c2cnc(N3CCOCC3)s2)c(=O)c2ccc(Cl)cc2n1-c1ccccc1 | 8.10

— ChEMBL document CHEMBL3638467, “Aminomethyl quinolone compounds” (2013)
